These compounds were tested against T1, FGFR3 enzyme (Millipore) (Homo sapiens, UniProt P22607) (assay: FGFR Enzymatic Assay (peptide phosphorylation, FRET)). Details: pre-incubated for 4 hours; ATP 140 μM, peptide 500 nM.
T1 construct: purchased Millipore
Assay type: biochemical
Method: The inhibitor potency of the exemplified compounds was measured in an enzyme assay that measures peptide phosphorylation using FRET measurements to detect product formation. Inhibitors were serially diluted in DMSO and a volume of 0.5 μL was transferred to the wells of a 384-well plate. For FGFR3, a 10 μL volume of FGFR3 enzyme (Millipore) diluted in assay buffer (50 mM HEPES, 10 mM MgCl2, 1 mM EGTA, 0.01% Tween-20, 5 mM DTT, pH 7.5) was added to the plate and pre-incubated for a time between 5-10 minutes and up to 4 hours. Appropriate controls (enzyme blank and enzyme with no inhibitor) were included on the plate. The assay was initiated by the addition of a 10 μL solution containing biotinylated EQEDEPEGDYFEWLE peptide substrate (SEQ ID NO: 1) and ATP (final concentrations of 500 nM and 140 μM respectively) in assay buffer to the wells. The plate was incubated at 25° C. for 1 hr. The reactions were ended with the addition of 10 μL/well of quench solution (50 mM Tris, 150 mM NaCl, 0.5 mg/mL BSA, pH 7.8; 30 mM EDTA with Perkin Elmer Lance Reagents at 3.75 nM Eu-antibody PY20 and 180 nM APC-Streptavidin). The plate was allowed to equilibrate for ˜1 hr before scanning the wells on a PheraStar plate reader (BMG Labtech).
GraphPad prism3 was used to analyze the data. The IC50 values were derived by fitting the data to the equation for a sigmoidal dose-response with a variable slope. Y=Bottom+(Top-Bottom)/(1+10^((Log IC50−X)*HillSlope)) where X is the logarithm of concentration and Y is the response.
Table 1 provides IC50 data for compounds of the invention assayed in the FGFR Enzymatic Assay after dilution in assay buffer, added to the plate and pre-incubated for 4 hours.

T1 sequence (P22607 23-806): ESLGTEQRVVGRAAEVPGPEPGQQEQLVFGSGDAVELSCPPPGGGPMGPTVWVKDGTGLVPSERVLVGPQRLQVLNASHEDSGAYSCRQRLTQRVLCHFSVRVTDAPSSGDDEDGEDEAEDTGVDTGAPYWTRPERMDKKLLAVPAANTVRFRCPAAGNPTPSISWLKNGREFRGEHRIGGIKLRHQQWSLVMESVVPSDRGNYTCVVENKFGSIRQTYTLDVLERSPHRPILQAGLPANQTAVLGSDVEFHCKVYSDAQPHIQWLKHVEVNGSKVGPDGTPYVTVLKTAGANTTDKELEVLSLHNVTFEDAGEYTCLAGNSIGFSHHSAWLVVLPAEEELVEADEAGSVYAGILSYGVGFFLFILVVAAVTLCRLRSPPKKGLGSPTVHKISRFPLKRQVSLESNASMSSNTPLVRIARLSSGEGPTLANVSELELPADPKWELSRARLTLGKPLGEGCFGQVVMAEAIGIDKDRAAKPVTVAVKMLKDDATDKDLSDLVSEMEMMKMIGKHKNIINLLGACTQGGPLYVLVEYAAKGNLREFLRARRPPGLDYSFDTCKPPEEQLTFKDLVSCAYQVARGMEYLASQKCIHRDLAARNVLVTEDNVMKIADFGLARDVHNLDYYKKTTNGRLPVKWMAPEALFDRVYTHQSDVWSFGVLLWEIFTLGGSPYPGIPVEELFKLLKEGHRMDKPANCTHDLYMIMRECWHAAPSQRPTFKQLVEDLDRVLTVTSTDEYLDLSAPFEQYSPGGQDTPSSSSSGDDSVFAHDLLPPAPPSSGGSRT

SMILES	IC50
COc1cc2[nH]nc(-c3cnn(C)c3)c2cc1C(=O)Nc1c(C)cccc1C [Example 1, N-(2,6-Dimethylphenyl)-6-methoxy-3-(1-methyl-1H-pyrazol-4-yl)-1H-indazole-5-carboxamide]	< 10 nM
COc1cc2[nH]nc(-c3cnn(C)c3)c2cc1C(=O)Nc1c(F)cccc1Cl [Example 2, N-(2-Chloro-6-fluorophenyl)-6-methoxy-3-(1-methyl-1H-pyrazol-4-yl)-1H-indazole-5-carboxamide]	< 10 nM
COc1cc2[nH]nc(-c3cnn(C)c3)c2cc1C(=O)Nc1c(C)cccc1Cl [Example 3, N-(2-Chloro-6-methylphenyl)-6-methoxy-3-(1-methyl-1H-pyrazol-4-yl)-1H-indazole-5-carboxamide]	< 10 nM
COc1cc2[nH]nc(-c3cnn(C)c3)c2cc1C(=O)Nc1c(C)cccc1C(F)(F)F [Example 4, 6-Methoxy-3-(1-methyl-1H-pyrazol-4-yl)-N-(2-methyl-6-(trifluoromethyl)phenyl)-1H-indazole-5-carboxamide]	< 10 nM
COc1cc2[nH]nc(-c3cnn(C)c3)c2cc1C(=O)Nc1c(C)cc(F)cc1C [Example 5, N-(4-Fluoro-2,6-dimethylphenyl)-6-methoxy-3-(1-methyl-1H-pyrazol-4-yl)-1H-indazole-5-carboxamide]	< 10 nM
CCc1cccc(C)c1NC(=O)c1cc2c(-c3cnn(C)c3)n[nH]c2cc1OC [Example 6, N-(2-Ethyl-6-methylphenyl)-6-methoxy-3-(1-methyl-1H-pyrazol-4-yl)-1H-indazole-5-carboxamide]	< 10 nM
CCc1cccc(CC)c1NC(=O)c1cc2c(-c3cnn(C)c3)n[nH]c2cc1OC [Example 7, N-(2,6-Diethylphenyl)-6-methoxy-3-(1-methyl-1H-pyrazol-4-yl)-1H-indazole-5-carboxamide]	< 10 nM
COc1cc2[nH]nc(-c3cnn(C)c3)c2cc1C(=O)Nc1c(C)cccc1F [Example 8, N-(2-Fluoro-6-methylphenyl)-6-methoxy-3-(1-methyl-1H-pyrazol-4-yl)-1H-indazole-5-carboxamide]	< 10 nM
COc1cc2[nH]nc(-c3cnn(C)c3)c2cc1C(=O)Nc1c(C)cccc1OC [Example 9, 6-Methoxy-N-(2-methoxy-6-methylphenyl)-3-(1-methyl-1H-pyrazol-4-yl)-1H-indazole-5-carboxamide]	30 to 200 nM
COc1cc(C)c(NC(=O)c2cc3c(-c4cnn(C)c4)n[nH]c3cc2OC)c(C)c1 [Example 10, 6-Methoxy-N-(4-methoxy-2,6-dimethylphenyl)-3-(1-methyl-1H-pyrazol-4-yl)-1H-indazole-5-carboxamide]	30 to 200 nM
COc1cc2[nH]nc(-c3cnn(C)c3)c2cc1C(=O)Nc1c(C)cc(C#N)cc1C [Example 11, N-(4-Cyno-2,6-dimethylphenyl)-6-methoxy-3-(1-methyl-1H-pyrazol-4-yl)-1H-indazole-5-carboxamide]	10 to 30 nM
Cc1cc2[nH]nc(-c3cnn(C)c3)c2cc1C(=O)Nc1c(C)cccc1C [Example 12, N-(2,6-Dimethylphenyl)-6-methyl-3-(1-methyl-1H-pyrazol-4-yl)-1H-indazole-5-carboxamide]	≥ 200 nM
Cc1cccc(C)c1NC(=O)c1cc2c(-c3cnn(C)c3)n[nH]c2cc1Cl [Example 13, 6-Chloro-N-(2,6-dimethylphenyl)-3-(1-methyl-1H-pyrazol-4-yl)-1H-indazole-5-carboxamide]	30 to 200 nM
Cc1cc2[nH]nc(-c3cnn(C)c3)c2cc1C(=O)Nc1c(C)cccc1F [Example 14, N-(2-Fluoro-6-methylphenyl)-6-methyl-3-(1-methyl-1H-pyrazol-4-yl)-1H-indazole-5-carboxamide]	≥ 200 nM
Cc1cccc(F)c1NC(=O)c1cc2c(-c3cnn(C)c3)n[nH]c2cc1Cl [Example 15, 6-Chloro-N-(2-fluoro-6-methylphenyl)-3-(1-methyl-1H-pyrazol-4-yl)-1H-indazole-5-carboxamide]	≥ 200 nM
Cn1cc(-c2n[nH]c3cc(Cl)c(C(=O)Nc4c(F)cccc4Cl)cc23)cn1 [Example 16, 6-Chloro-N-(2-chloro-6-fluorophenyl)-3-(1-methyl-1H-pyrazol-4-yl)-1H-indazole-5-carboxamide]	≥ 200 nM

SMILES	IC50
COc1cc2[nH]nc(-c3cnn(C4CCC4)c3)c2cc1C(=O)Nc1c(F)cccc1Cl [Example 17, N-(2-Chloro-6-fluorophenyl)-3-(1-cyclobutyl-1H-pyrazol-4-yl)-6-methoxy-1H-indazole-5-carboxamide]	< 10 nM
COc1cc2[nH]nc(-c3cnn(C4CC4)c3)c2cc1C(=O)Nc1c(F)cccc1Cl [Example 18, N-(2-Chloro-6-fluorophenyl)-3-(1-cyclopropyl-1H-pyrazol-4-yl)-6-methoxy-1H-indazole-5-carboxamide]	10 to 30 nM
CCNC(=O)Cn1cc(-c2n[nH]c3cc(OC)c(C(=O)Nc4c(C)cccc4C)cc23)cn1 [Example 19, N-(2,6-Dimethylphenyl)-3-(1-(2-(ethylamino)-2-oxoethyl)-1H-pyrazol-4-yl)-6-methoxy-1H-indazole-5-carboxamide]	10 to 30 nM
COc1cc2[nH]nc(-c3ccc(N4CCN(C(C)=O)CC4)cc3)c2cc1C(=O)Nc1c(C)cccc1C [Example 20, 3-(4-(4-Acetylpiperazin-1-yl)phenyl)-N-(2,6-dimethylphenyl)-6-methoxy-1H-indazole-5-carboxamide]	< 10 nM
COc1cc2[nH]nc(-c3ccc(N4CCN(C)CC4)cc3)c2cc1C(=O)Nc1c(C)cccc1C [Example 21, N-(2,6-Dimethylphenyl)-6-methoxy-3-(4-(4-methylpiperazin-1-yl)phenyl)-1H-indazole-5-carboxamide]	< 10 nM
COc1cc2[nH]nc(-c3cnn(C4CN(C(=O)N(C)C)C4)c3)c2cc1C(=O)Nc1c(C)cccc1C [Example 22, 3-(1-(1-(Dimethylcarbamoyl)azetidin-3-yl)-1H-pyrazol-4-yl)-N-(2,6-dimethylphenyl)-6-methoxy-1H-indazole-5-carboxamide]	< 10 nM
CCOC(=O)N1CC(n2cc(-c3n[nH]c4cc(OC)c(C(=O)Nc5c(C)cccc5C)cc34)cn2)C1 [Example 23, Ethyl 3-(4-(5-((2,6-Dimethylphenyl)carbamoyl)-6-methoxy-1H-indazol-3-yl)-1H-pyrazol-1-yl)azetidine-1-carboxylate]	< 10 nM
COC(=O)N1CCC(n2cc(-c3n[nH]c4cc(OC)c(C(=O)Nc5c(C)cccc5C)cc34)cn2)CC1 [Example 24, Methyl 4-(4-(5-((2,6-dimethylphenyl)carbamoyl)-6-methoxy-1H-indazol-3-yl)-1H-pyrazol-1-yl)piperidine-1-carboxylate]	< 10 nM
COc1cc2[nH]nc(-c3cnn(C4CCN(C(C)=O)CC4)c3)c2cc1C(=O)Nc1c(C)cccc1C [Example 25, 3-(1-(1-Acetylpiperidin-4-yl)-1H-pyrazol-4-yl)-N-(2,6-dimethylphenyl)-6-methoxy-1H-indazole-5-carboxamide]	< 10 nM
COc1cc2[nH]nc(-c3ccc(N4CCN(C)CC4)nc3)c2cc1C(=O)Nc1c(C)cccc1C [Example 26, N-(2,6-Dimethylphenyl)-6-methoxy-3-(6-(4-methylpiperazin-1-yl)pyridin-3-yl)-1H-indazole-5-carboxamide]	< 10 nM
COc1cc2[nH]nc(-c3cnn(C)c3)c2cc1C(=O)Nc1c(C)cc(NS(C)(=O)=O)cc1C [Example 27, N-(2,6-Dimethyl-4-(methylsulfonamido)phenyl)-6-methoxy-3-(1-methyl-1H-pyrazol-4-yl)-1H-indazole-5-carboxamide]	10 to 30 nM
COc1cc2[nH]nc(-c3cnn(C)c3)c2cc1C(=O)Nc1c(C)cc(NC(C)=O)cc1C [Example 28, N-(4-Acetamido-2,6-dimethylphenyl)-6-methoxy-3-(1-methyl-1H-pyrazol-4-yl)-1H-indazole-5-carboxamide]	30 to 200 nM
COc1cc2[nH]nc(-c3cnn(C)c3)c2cc1C(=O)Nc1c(C)cc(N(C)C)cc1C [Example 29, N-(4-(Dimethylamino)-2,6-dimethylphenyl)-6-methoxy-3-(1-methyl-1H-pyrazol-4-yl)-1H-indazole-5-carboxamide]	30 to 200 nM
CCNC(=O)N1CC(n2cc(-c3n[nH]c4cc(OC)c(C(=O)Nc5c(C)cccc5C)cc34)cn2)C1 [Example 30, N-(2,6-Dimethylphenyl)-3-(1-(1-(ethylcarbamoyl)azetidin-3-yl)-1H-pyrazol-4-yl)-6-methoxy-1H-indazole-5-carboxamide]	< 10 nM
COC(=O)N1CC(n2cc(-c3n[nH]c4cc(OC)c(C(=O)Nc5c(C)cccc5C)cc34)cn2)C1 [Example 31, Methyl 3-(4-(5-((2,6-dimethylphenyl)carbamoyl)-6-methoxy-1H-indazol-3-yl)-1H-pyrazol-1-yl)azetidine-1-carboxylate]	< 10 nM
COc1cc2[nH]nc(-c3cnn(C4CN(S(C)(=O)=O)C4)c3)c2cc1C(=O)Nc1c(C)cccc1C [Example 32, N-(2,6-Dimethylphenyl)-6-methoxy-3-(1-(1-(methylsulfonyl)azetidin-3-yl)-1H-pyrazol-4-yl)-1H-indazole-5-carboxamide]	< 10 nM

Reference: patent US12122767B2, “Bicyclic heterocycles as FGFR inhibitors” (Incyte Corporation, priority 2019, dated 2024)
